Data on 15 molecules can be found in patent US8765166B2, “Drug delivery devices for delivery of ocular therapeutic agents” (Aerie Pharmaceuticals, Inc., priority 2010, dated 2014).

Converted amounts (≈) assume the structure as drawn. Where a name gives a salt, the structure may show the parent alone.

One series is described as follows: physchem. To be noted: for solubility: aqueous buffer. An excerpt:
The active agent may be any active agent suitable to treat the desired condition. […] Examples include, but are not limited to, acetazolamide, dorzolamide HCl, timolol maleate, and ethacrynic acid sodium salt.

The conditions of series [1]: topical ocular use; cited from earlier work.

As usually defined, the solubility is the dissolved amount per volume that the medium holds. A high value points to much dissolved substance.

Take `O=C(O)CCCCCC[C@@H]1[C@@H](CC[C@@H](O)c2cc3ccccc3s2)[C@H](O)C[C@@H]1O` [AR-102 free acid, 7-((1R,2R,3R,5S)-2-((R)-3-(benzo[b]thiophen-2-yl)-3-hydroxypropyl)-3,5-dihydroxycyclopentyl)heptanoic acid]: in “physchem”, the solubility class result is given as “moderate solubility”. Same read-out and setting: the result for `C[C@@H](N)c1ccc(C(=O)Nc2ccnc3[nH]ccc23)cc1` [Y-39983 Free Base] reads “Moderately Soluble”. For `CC(=O)Nc1nnc(S(N)(=O)=O)s1` [acetazolamide], the solubility in the series “physchem” is > 1000 µg/mL.

`CCNC(=O)CCC/C=C\C[C@@H]1[C@@H](/C=C/[C@@H](O)CCc2ccccc2)[C@H](O)C[C@@H]1O` [bimatoprost]: the solubility class entry in “physchem” is recorded as “low solubility”. On to `Brc1c(NC2=NCCN2)ccc2nccnc12` [brimonidine free base], for which, in the series “physchem”, the “solubility in PBS” value was 360 µg/mL (≈ 1230 µM). On to `C[C@@H]1C[C@H]2[C@@H]3CCC4=CC(=O)C=C[C@]4(C)[C@@]3(F)[C@@H](O)C[C@]2(C)[C@@]1(O)C(=O)COP(=O)(O)O` [dexamethasone sodium phosphate], for which the solubility class result in the series “physchem” is given as “high solubility”. For `C[C@@H]1C[C@H]2[C@@H]3CCC4=CC(=O)C=C[C@]4(C)[C@@]3(F)[C@@H](O)C[C@]2(C)[C@@]1(O)C(=O)CO` [dexamethasone], in the series “physchem”, the solubility class result was “low solubility” and the solubility is < 300 µg/mL.

As to `CCN[C@H]1C[C@H](C)S(=O)(=O)c2sc(S(N)(=O)=O)cc21` [dorzolamide HCl], in the series “physchem”, the solubility class result is on record as “high solubility” and the solubility is > 1000 µg/mL. Turning to `C=C(CC)C(=O)c1ccc(OCC(=O)O)c(Cl)c1Cl` [ethacrynic acid sodium salt], in the series “physchem”, the solubility class entry is “high solubility” and the solubility was > 1000 µg/mL. Regarding `O=C(O)CCC/C=C\C[C@@H]1[C@@H](CC[C@@H](O)CCc2ccccc2)[C@H](O)C[C@@H]1O` [latanoprost free acid], the “solubility in PBS” value in the series “physchem” stood at 800 µg/mL (≈ 2050 µM). Turning to `CC(C)OC(=O)CCC/C=C\C[C@@H]1[C@@H](CC[C@@H](O)CCc2ccccc2)[C@H](O)C[C@@H]1O` [latanoprost isopropyl ester], in the series “physchem”, the solubility class result is recorded as “low solubility” and the solubility is < 300 µg/mL. Also, the topical effective concentration in series [1] is 0.05 milligrams/mL. On to `CC[C@H](C)C(=O)O[C@H]1C[C@@H](C)C=C2C=C[C@H](C)[C@H](CC[C@@H]3C[C@@H](O)CC(=O)O3)[C@H]21` [lovastatin], for which the solubility in the series “physchem” was < 300 µg/mL. As to `CC(C)(C)NC[C@H](O)COc1nsnc1N1CCOCC1` [timolol maleate], in “physchem”, the solubility class entry is given as “high solubility” and the solubility was > 1000 µg/mL.

With `CC(C)OC(=O)CCC/C=C\C[C@@H]1[C@@H](/C=C/[C@@H](O)COc2cccc(C(F)(F)F)c2)[C@H](O)C[C@@H]1O` [travoprost isopropyl ester], in the series “physchem”, the solubility class entry is given as “low solubility” and the solubility is < 300 µg/mL. On to brimonidine tartrate, for which the solubility class result in “physchem” (PBS at pH=7.2-7.4, listed as brimonidine D-tartrate salt) is listed as “high solubility”. For the same molecule, the solubility in water in the series “physchem” (in water at pH 7.7) worked out at 600 µg/mL.
